Broadly, the pIC50 is the negative decadic logarithm of the IC50, by convention in mol/L.

Results on one compound are retold here after ChEMBL document CHEMBL5726336, “Arylquinazolines” (2017).

pIC50: −log10 of the molar value.

The assay has as its target DNA-dependent protein kinase catalytic subunit (Homo sapiens, UniProt P78527). Briefly: Biochemical Assay: The kinase assay was carried out in streptavidin-coated […] microtitre flashplates. […] The reaction was stopped using 50 ul/well of 200 mM EDTA. After incubation for a further 30 min at room temperature, the liquid was removed. Each well was washed three times with 100 ul of 0.9% saline solution. A nonspecific reaction (blank value) was determined using 10 uM of an innate kinase inhibitor. The radioactivity measurement was carried out using a TopCount. IC50 values were calculated in RS1.

Chain of DNA-dependent protein kinase catalytic subunit (P78527 whole entry): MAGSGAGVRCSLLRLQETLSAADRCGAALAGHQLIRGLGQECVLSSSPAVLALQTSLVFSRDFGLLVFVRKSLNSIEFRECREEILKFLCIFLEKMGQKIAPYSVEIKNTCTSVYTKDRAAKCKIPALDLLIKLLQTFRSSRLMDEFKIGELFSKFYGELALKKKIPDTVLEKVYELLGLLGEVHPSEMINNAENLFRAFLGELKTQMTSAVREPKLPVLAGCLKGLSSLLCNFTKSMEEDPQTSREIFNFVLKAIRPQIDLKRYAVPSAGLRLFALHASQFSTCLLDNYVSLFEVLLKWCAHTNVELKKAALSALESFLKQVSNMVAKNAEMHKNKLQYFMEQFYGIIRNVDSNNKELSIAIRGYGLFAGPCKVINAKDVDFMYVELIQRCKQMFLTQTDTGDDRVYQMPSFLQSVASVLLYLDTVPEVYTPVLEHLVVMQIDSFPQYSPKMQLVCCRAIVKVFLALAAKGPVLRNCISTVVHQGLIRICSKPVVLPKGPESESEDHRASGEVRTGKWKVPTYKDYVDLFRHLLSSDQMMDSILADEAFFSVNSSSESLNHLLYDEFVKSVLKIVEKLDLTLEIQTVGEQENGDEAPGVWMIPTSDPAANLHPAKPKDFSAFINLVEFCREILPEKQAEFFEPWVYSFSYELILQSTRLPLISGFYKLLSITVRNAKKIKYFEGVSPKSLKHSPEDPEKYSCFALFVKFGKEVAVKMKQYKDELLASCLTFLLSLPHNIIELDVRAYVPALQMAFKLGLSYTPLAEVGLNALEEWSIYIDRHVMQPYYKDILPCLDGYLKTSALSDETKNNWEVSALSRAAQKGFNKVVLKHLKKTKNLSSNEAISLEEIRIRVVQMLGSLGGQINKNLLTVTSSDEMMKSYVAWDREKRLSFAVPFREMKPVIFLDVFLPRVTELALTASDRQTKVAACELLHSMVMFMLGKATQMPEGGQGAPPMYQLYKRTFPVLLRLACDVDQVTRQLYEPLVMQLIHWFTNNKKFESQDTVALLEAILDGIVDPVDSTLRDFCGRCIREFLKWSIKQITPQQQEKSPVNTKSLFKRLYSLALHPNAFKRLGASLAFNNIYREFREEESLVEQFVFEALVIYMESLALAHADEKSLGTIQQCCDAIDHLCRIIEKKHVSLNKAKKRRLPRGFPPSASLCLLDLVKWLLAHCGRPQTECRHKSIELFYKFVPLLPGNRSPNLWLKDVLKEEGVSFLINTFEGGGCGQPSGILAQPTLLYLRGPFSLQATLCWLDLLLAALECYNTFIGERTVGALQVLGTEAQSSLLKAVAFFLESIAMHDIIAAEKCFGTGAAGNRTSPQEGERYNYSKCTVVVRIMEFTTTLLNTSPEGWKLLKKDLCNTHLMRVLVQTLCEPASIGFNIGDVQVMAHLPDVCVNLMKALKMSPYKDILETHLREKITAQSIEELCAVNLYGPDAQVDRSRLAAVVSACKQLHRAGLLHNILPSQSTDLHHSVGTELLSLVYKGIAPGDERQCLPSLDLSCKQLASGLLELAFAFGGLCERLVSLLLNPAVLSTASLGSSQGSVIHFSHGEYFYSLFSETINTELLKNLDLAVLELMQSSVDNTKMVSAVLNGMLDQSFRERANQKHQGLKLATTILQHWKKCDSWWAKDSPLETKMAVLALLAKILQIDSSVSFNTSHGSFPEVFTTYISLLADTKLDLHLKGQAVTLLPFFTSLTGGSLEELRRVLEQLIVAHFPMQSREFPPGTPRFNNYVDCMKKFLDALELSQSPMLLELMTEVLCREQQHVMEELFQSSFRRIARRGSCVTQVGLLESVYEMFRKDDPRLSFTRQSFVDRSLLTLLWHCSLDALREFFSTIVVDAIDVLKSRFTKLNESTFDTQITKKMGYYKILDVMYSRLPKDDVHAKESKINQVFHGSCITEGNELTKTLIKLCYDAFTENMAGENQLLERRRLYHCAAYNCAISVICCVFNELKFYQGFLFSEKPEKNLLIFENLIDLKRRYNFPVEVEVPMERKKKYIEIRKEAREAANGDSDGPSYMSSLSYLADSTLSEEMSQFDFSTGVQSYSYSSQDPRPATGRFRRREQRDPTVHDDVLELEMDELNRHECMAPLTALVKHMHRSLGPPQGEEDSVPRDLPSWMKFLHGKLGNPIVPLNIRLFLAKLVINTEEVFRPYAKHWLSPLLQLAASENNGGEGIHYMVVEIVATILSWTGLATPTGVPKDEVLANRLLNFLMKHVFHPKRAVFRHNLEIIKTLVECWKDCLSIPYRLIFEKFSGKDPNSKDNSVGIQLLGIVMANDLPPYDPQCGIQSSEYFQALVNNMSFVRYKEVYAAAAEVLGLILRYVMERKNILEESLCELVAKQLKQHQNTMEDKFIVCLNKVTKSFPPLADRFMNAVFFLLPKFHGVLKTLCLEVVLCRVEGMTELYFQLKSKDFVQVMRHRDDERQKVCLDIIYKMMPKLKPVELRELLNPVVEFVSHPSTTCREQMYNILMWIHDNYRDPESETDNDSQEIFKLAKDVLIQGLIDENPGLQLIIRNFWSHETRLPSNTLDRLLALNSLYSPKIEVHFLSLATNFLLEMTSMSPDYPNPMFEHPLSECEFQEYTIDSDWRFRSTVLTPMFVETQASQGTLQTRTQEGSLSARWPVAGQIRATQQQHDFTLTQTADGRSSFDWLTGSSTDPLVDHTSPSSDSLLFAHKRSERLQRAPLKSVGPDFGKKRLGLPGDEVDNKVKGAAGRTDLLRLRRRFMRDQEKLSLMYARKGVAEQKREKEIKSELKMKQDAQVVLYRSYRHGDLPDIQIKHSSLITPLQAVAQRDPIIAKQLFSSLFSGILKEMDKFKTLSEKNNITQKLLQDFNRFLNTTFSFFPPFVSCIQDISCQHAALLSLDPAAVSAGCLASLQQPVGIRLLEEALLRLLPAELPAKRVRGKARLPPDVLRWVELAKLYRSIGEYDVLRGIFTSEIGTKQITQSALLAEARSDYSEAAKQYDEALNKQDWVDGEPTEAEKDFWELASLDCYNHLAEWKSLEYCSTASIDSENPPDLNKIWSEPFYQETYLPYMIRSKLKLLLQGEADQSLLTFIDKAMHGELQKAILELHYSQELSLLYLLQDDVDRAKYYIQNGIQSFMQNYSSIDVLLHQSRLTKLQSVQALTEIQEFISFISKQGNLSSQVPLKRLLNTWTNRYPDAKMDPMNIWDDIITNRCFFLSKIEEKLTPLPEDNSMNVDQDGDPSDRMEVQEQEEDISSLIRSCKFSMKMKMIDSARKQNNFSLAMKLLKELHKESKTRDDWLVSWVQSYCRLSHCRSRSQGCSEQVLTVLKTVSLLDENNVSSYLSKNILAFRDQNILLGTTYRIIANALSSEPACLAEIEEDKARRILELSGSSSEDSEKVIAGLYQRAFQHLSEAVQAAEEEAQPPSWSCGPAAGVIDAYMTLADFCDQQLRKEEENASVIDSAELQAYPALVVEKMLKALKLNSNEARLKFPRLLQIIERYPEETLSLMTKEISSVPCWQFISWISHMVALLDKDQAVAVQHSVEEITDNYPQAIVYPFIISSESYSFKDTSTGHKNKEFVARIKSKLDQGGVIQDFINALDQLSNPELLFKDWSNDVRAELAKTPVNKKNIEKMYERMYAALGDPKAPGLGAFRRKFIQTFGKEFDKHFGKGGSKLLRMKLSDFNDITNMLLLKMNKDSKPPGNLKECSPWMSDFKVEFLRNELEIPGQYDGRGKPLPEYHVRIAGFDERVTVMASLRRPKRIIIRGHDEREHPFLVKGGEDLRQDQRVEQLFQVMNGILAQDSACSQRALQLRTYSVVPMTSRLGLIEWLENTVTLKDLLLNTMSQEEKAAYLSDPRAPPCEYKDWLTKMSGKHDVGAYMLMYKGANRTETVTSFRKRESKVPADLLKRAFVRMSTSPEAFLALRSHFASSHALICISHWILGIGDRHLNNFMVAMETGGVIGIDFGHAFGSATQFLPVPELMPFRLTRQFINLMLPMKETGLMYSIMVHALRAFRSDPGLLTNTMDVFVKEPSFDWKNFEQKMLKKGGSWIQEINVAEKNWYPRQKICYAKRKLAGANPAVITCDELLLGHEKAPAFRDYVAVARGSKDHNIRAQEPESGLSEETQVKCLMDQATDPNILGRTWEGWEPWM

With `CCNCc1csc(C(O)c2cc(-c3ncnc4cc(N5CCOCC5)ccc34)c(F)cc2Cl)n1` (stereo unspecified), the pIC50 was 7.52 to 8.15.
